Assay results from the NIST ThermoML archive (doi:10.1021/je4005323).

Details: Liquid; for speed of sound: Pulse-echo method; for mass density: Vibrating tube method

CCCCCCCC/C=C\CCCCCCCC(=O)OC [methyl cis-9-octadecenoate]
Details | mass density, 293.15 K [kg/m3] | mass density, 303.15 K [kg/m3] | mass density, 313.15 K [kg/m3] | mass density, 323.15 K [kg/m3] | mass density, 333.15 K [kg/m3] | mass density, 343.15 K [kg/m3] | speed of sound, 283.15 K [m/s] | speed of sound, 303.15 K [m/s] | speed of sound, 323.15 K [m/s] | speed of sound, 343.15 K [m/s]
101.3 kPa | 873.8 | 866.3 | 859.6 | 852.4 | 844.8 | 837.8 | 1443.2 | 1370.5 | 1301.9 | 1235.8
10000 kPa | 880 | 872.8 | 865.8 | 858.9 | 851.7 | 845.2 | 1486.1 | 1416.8 | 1352.1 | 1289
20000 kPa | 885.3 | 878.4 | 871.7 | 865.1 | 858.3 | 851.9 | 1526.5 | 1460 | 1397.7 | 1338.1
30000 kPa | 890.6 | 883.9 | 877.5 | 870.9 | 864.2 | 858.1 | 1564.5 | 1502 | 1441.1 | 1383.7
40000 kPa | 895.5 | 888.9 | 882.5 | 876.1 | 869.7 | 864 | 1600.5 | 1540.9 | 1482.3 | 1426
50000 kPa | 900.1 | 893.7 | 887.5 | 881.1 | 875 | 869.5 | 1634.5 | 1578.3 | 1521.2 | 1466.7
60000 kPa | 904.5 | 898.3 | 892.2 | 886.2 | 880.1 | 874.6 | 1668.6 | 1613.7 | 1558.5 | 1505.4
70000 kPa | 908.9 | 902.7 | 896.7 | 891 | 884.9 | 879.5 | 1701 | 1647 | 1593.5 | 1542.2
80000 kPa | 912.6 | 906.9 | 901.2 | 895.5 | 889.4 | – | 1732.7 | 1678.8 | 1627.2 | –
90000 kPa | 916.9 | 910.9 | 905.2 | 899.7 | 893.9 | – | 1762.7 | 1709.5 | 1659.3 | –
100000 kPa | 920.7 | 915.4 | 909.7 | 904.1 | 898.2 | – | 1790.8 | 1739.7 | 1690.2 | –
110000 kPa | – | – | – | – | – | – | 1819.3 | 1768.5 | 1719.3 | –
120000 kPa | – | – | – | – | – | – | 1846 | 1796.4 | 1747.7 | –
130000 kPa | – | – | – | – | – | – | 1872.5 | 1821.2 | 1775.4 | –
140000 kPa | – | – | – | – | – | – | 1897.8 | 1848.1 | 1801.6 | –
150000 kPa | – | – | – | – | – | – | 1923.3 | 1874.2 | 1827.1 | –
160000 kPa | – | – | – | – | – | – | 1947.8 | 1899 | 1853 | –
170000 kPa | – | – | – | – | – | – | 1971.2 | 1923.1 | 1878.4 | –
180000 kPa | – | – | – | – | – | – | 1994.3 | 1947 | 1902.6 | –
190000 kPa | – | – | – | – | – | – | 2016.8 | 1970.3 | 1925.8 | –
200000 kPa | – | – | – | – | – | – | 2036.4 | 1992.7 | 1949.2 | –
